Results taken from patent US20240158446A1, “CYCLIC COMPOUND HAVING SELECTIVE INHIBITORY ACTION ON KRAS OVER HRAS AND NRAS” (CHUGAI SEIYAKU KABUSHIKI KAISHA, priority 2021, published 2024).
Where a SMILES comes first, the peptide text is derived from it. Bridges are numbered along the chain shown (N, C = ends). [ ]: non-standard residue; d: D form. The star is where a group is joined. hPhe(3-Cl-4-CF3) = N[C@@H](CCc1ccc(C(F)(F)F)c(Cl)c1)C(=O)O; NPrPhe(4-CF3) = CCCN[C@@H](Cc1ccc(C(F)(F)F)cc1)C(=O)O; Pro(4-spirocPr) = O=C(O)[C@@H]1CC2(CC2)CN1; Abu(4,4,4-F3) = N[C@@H](CC(F)(F)F)C(=O)O; Morpholine(3S-CO) = O=C(O)[C@@H]1COCCN1; NMeGly(cPent) = CN[C@H](C(=O)O)C1CCCC1; Pro(4,4-F2) = O=C(O)[C@@H]1CC(F)(F)CN1; Gly(cPent) = N[C@H](C(=O)O)C1CCCC1; Hyp = O=C(O)[C@@H]1C[C@@H](O)CN1; NMeD = CN[C@@H](CC(=O)O)C(=O)O; NMeL = CN[C@@H](CC(C)C)C(=O)O; hPip = O=C(O)[C@@H]1CCCCCN1; Morpholide = C1CN(*)CCO1; Ac5c = NC1(C(=O)O)CCCC1; Aze = O=C(O)[C@@H]1CCN1; Abu = CC[C@H](N)C(=O)O; Ac4c = NC1(C(=O)O)CCC1; Sar = CNCC(=O)O

Key:
[1] = biological target: GDP-bound HRAS wild-type protein (Homo sapiens, UniProt P01112); assay: Binding to HRAS by surface plasmon resonance (SPR), Single Cycle Kinetics; conditions: SPR, GDP-bound HRAS wild-type protein vs GDP-bound KRAS wild-type protein
[2] = test system: human lung cancer strain NCI-H441;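 further: cell proliferation inhibition after four days measured by CellTiter-Glo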
[3] = biological target: GDP-bound NRAS wild-type protein (Homo sapiens, UniProt P01111); assay: Binding to NRAS by surface plasmon resonance (SPR), Single Cycle Kinetics; conditions: SPR, GDP-bound NRAS wild-type protein vs GDP-bound KRAS wild-type protein
Sequence of GDP-bound NRAS wild-type protein (P01111 whole entry): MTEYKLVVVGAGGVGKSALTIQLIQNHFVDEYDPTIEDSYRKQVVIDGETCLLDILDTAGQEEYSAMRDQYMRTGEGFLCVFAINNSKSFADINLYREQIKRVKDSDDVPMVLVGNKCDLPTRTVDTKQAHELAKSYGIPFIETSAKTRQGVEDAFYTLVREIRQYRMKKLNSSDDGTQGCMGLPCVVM

Sequence of GDP-bound HRAS wild-type protein (P01112 whole entry): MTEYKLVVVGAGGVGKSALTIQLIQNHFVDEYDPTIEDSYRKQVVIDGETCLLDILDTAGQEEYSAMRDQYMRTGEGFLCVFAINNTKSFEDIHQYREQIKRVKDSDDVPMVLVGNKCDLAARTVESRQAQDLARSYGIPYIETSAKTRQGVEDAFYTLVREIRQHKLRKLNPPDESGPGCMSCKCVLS

## CCCN1C(=O)CN(C)C(=O)[C@@H]2CCN2C(=O)[C@H]([C@@H](C)CC)NC(=O)[C@@H]2CCCCCN2C(=O)C[C@@H](C(=O)N2CCOCC2)N(C)C(=O)[C@H](C2CCCC2)N(C)C(=O)C2(CCCC2)NC(=O)[C@@H]2CCCN2C(=O)[C@H](CCc2ccc(C(F)(F)F)c(Cl)c2)NC(=O)CN(C)C(=O)[C@@H]1Cc1ccc(C(F)(F)F)cc1 [PP0302] ([hPip]I[Aze][Sar][NPrPhe(4-CF3)][Sar][hPhe(3-Cl-4-CF3)]P[Ac5c][NMeGly(cPent)][NMeD]-Morpholide; lactam N-11)
[1]
  HRAS/KRAS (ratio of KD value for HRAS to KD value for KRAS): C (A compound having a KD ratio of 0.1 or more and less than 3 is denoted as C)
[2]
  IC50: 126 nM
[3]
  NRAS/KRAS (ratio of KD value for NRAS to KD value for KRAS): B (a compound having 3 or more and less than 10 is denoted as B)

## CCCN1C(=O)CN(C)C(=O)[C@@H]2CCN2C(=O)[C@H](CC)NC(=O)[C@H](CC(C)C)N(C)C(=O)C[C@@H](C(=O)N2CCOCC2)N(C)C(=O)[C@H](C2CCCC2)N(C)C(=O)C2(CCCC2)NC(=O)[C@@H]2CCCN2C(=O)[C@H](CCc2ccc(C(F)(F)F)c(Cl)c2)NC(=O)CN(C)C(=O)[C@@H]1Cc1ccc(C(F)(F)F)cc1 [PP0303] ([NMeL][Abu][Aze][Sar][NPrPhe(4-CF3)][Sar][hPhe(3-Cl-4-CF3)]P[Ac5c][NMeGly(cPent)][NMeD]-Morpholide; lactam N-11)
[1]
  HRAS/KRAS (ratio of KD value for HRAS to KD value for KRAS): B (a compound having 3 or more and less than 10 is denoted as B)
[2]
  IC50: 349 nM
[3]
  NRAS/KRAS (ratio of KD value for NRAS to KD value for KRAS): B (a compound having 3 or more and less than 10 is denoted as B)

## CCCN1C(=O)CN(C)C(=O)[C@@H]2CCN2C(=O)[C@H](CC(F)(F)F)NC(=O)[C@H](CC(C)C)N(C)C(=O)C[C@@H](C(=O)N2CCOCC2)N(C)C(=O)[C@H](C2CCCC2)N(C)C(=O)C2(CCCC2)NC(=O)[C@@H]2CCCN2C(=O)[C@H](CCc2ccc(C(F)(F)F)c(Cl)c2)NC(=O)CN(C)C(=O)[C@@H]1Cc1ccc(C(F)(F)F)cc1 [PP0304] ([NMeL][Abu(4,4,4-F3)][Aze][Sar][NPrPhe(4-CF3)][Sar][hPhe(3-Cl-4-CF3)]P[Ac5c][NMeGly(cPent)][NMeD]-Morpholide; lactam N-11)
[1]
  HRAS/KRAS (ratio of KD value for HRAS to KD value for KRAS): B (a compound having 3 or more and less than 10 is denoted as B)
[2]
  IC50: 112 nM
[3]
  NRAS/KRAS (ratio of KD value for NRAS to KD value for KRAS): B (a compound having 3 or more and less than 10 is denoted as B)

## CCCN1C(=O)CN(C)C(=O)[C@@H]2CCN2C(=O)[C@H](C2CCCC2)NC(=O)[C@H](CC(C)C)N(C)C(=O)C[C@@H](C(=O)N2CCOCC2)N(C)C(=O)[C@H](C2CCCC2)N(C)C(=O)C2(CCCC2)NC(=O)[C@@H]2CCCN2C(=O)[C@H](CCc2ccc(C(F)(F)F)c(Cl)c2)NC(=O)CN(C)C(=O)[C@@H]1Cc1ccc(C(F)(F)F)cc1 [PP0306] ([NMeL][Gly(cPent)][Aze][Sar][NPrPhe(4-CF3)][Sar][hPhe(3-Cl-4-CF3)]P[Ac5c][NMeGly(cPent)][NMeD]-Morpholide; lactam N-11)
[1]
  HRAS/KRAS (ratio of KD value for HRAS to KD value for KRAS): B (a compound having 3 or more and less than 10 is denoted as B)
[2]
  IC50: 142 nM
[3]
  NRAS/KRAS (ratio of KD value for NRAS to KD value for KRAS): B (a compound having 3 or more and less than 10 is denoted as B)

## CCCN1C(=O)CN(C)C(=O)[C@@H]2CCN2C(=O)[C@H]([C@@H](C)CC)NC(=O)[C@H](CC(C)C)N(C)C(=O)C[C@@H](C(=O)N2CCOCC2)N(C)C(=O)[C@H](C2CCCC2)N(C)C(=O)C2(CCCC2)NC(=O)[C@@H]2CCN2C(=O)[C@H](CCc2ccc(C(F)(F)F)c(Cl)c2)NC(=O)CN(C)C(=O)[C@@H]1Cc1ccc(C(F)(F)F)cc1 [PP0307] ([NMeL]I[Aze][Sar][NPrPhe(4-CF3)][Sar][hPhe(3-Cl-4-CF3)][Aze][Ac5c][NMeGly(cPent)][NMeD]-Morpholide; lactam N-11)
[1]
  HRAS/KRAS (ratio of KD value for HRAS to KD value for KRAS): B (a compound having 3 or more and less than 10 is denoted as B)
[2]
  IC50: 205 nM
[3]
  NRAS/KRAS (ratio of KD value for NRAS to KD value for KRAS): B (a compound having 3 or more and less than 10 is denoted as B)

## CCCN1C(=O)CN(C)C(=O)[C@@H]2CCN2C(=O)[C@H]([C@@H](C)CC)NC(=O)[C@H](CC(C)C)N(C)C(=O)C[C@@H](C(=O)N2CCOCC2)N(C)C(=O)[C@H](C2CCCC2)N(C)C(=O)C2(CCCC2)NC(=O)[C@@H]2CC3(CC3)CN2C(=O)[C@H](CCc2ccc(C(F)(F)F)c(Cl)c2)NC(=O)CN(C)C(=O)[C@@H]1Cc1ccc(C(F)(F)F)cc1 [PP0308] ([NMeL]I[Aze][Sar][NPrPhe(4-CF3)][Sar][hPhe(3-Cl-4-CF3)][Pro(4-spirocPr)][Ac5c][NMeGly(cPent)][NMeD]-Morpholide; lactam N-11)
[1]
  HRAS/KRAS (ratio of KD value for HRAS to KD value for KRAS): B (a compound having 3 or more and less than 10 is denoted as B)
[2]
  IC50: 56 nM
[3]
  NRAS/KRAS (ratio of KD value for NRAS to KD value for KRAS): B (a compound having 3 or more and less than 10 is denoted as B)

## CCCN1C(=O)CN(C)C(=O)[C@@H]2CCN2C(=O)[C@H]([C@@H](C)CC)NC(=O)[C@H](CC(C)C)N(C)C(=O)C[C@@H](C(=O)N2CCOCC2)N(C)C(=O)[C@H](C2CCCC2)N(C)C(=O)C2(CCCC2)NC(=O)[C@@H]2C[C@@H](OC)CN2C(=O)[C@H](CCc2ccc(C(F)(F)F)c(Cl)c2)NC(=O)CN(C)C(=O)[C@@H]1Cc1ccc(C(F)(F)F)cc1 [PP0309] ([NMeL]I[Aze][Sar][NPrPhe(4-CF3)][Sar][hPhe(3-Cl-4-CF3)][Hyp](Me)[Ac5c][NMeGly(cPent)][NMeD]-Morpholide; lactam N-11)
[1]
  HRAS/KRAS (ratio of KD value for HRAS to KD value for KRAS): B (a compound having 3 or more and less than 10 is denoted as B)
[2]
  IC50: 11.7 nM
[3]
  NRAS/KRAS (ratio of KD value for NRAS to KD value for KRAS): B (a compound having 3 or more and less than 10 is denoted as B)

## CCCN1C(=O)CN(C)C(=O)[C@@H]2CCN2C(=O)[C@H]([C@@H](C)CC)NC(=O)[C@H](CC(C)C)N(C)C(=O)C[C@@H](C(=O)N2CCOCC2)N(C)C(=O)[C@H](C2CCCC2)N(C)C(=O)C2(CCCC2)NC(=O)[C@@H]2COCCN2C(=O)[C@H](CCc2ccc(C(F)(F)F)c(Cl)c2)NC(=O)CN(C)C(=O)[C@@H]1Cc1ccc(C(F)(F)F)cc1 [PP0313] ([NMeL]I[Aze][Sar][NPrPhe(4-CF3)][Sar][hPhe(3-Cl-4-CF3)][Morpholine(3S-CO)][Ac5c][NMeGly(cPent)][NMeD]-Morpholide; lactam N-11)
[1]
  HRAS/KRAS (ratio of KD value for HRAS to KD value for KRAS): C (A compound having a KD ratio of 0.1 or more and less than 3 is denoted as C)
[2]
  IC50: 56.6 nM
[3]
  NRAS/KRAS (ratio of KD value for NRAS to KD value for KRAS): B (a compound having 3 or more and less than 10 is denoted as B)

## CCCN1C(=O)CN(C)C(=O)[C@@H]2CCN2C(=O)[C@H]([C@@H](C)CC)NC(=O)[C@H](CC(C)C)N(C)C(=O)C[C@@H](C(=O)N2CCOCC2)NC(=O)[C@H](C2CCCC2)N(C)C(=O)C2(CCC2)NC(=O)[C@@H]2CCCN2C(=O)[C@H](CCc2ccc(C(F)(F)F)c(Cl)c2)NC(=O)CN(C)C(=O)[C@@H]1Cc1ccc(C(F)(F)F)cc1 [PP0338] ([NMeL]I[Aze][Sar][NPrPhe(4-CF3)][Sar][hPhe(3-Cl-4-CF3)]P[Ac4c][NMeGly(cPent)]D-Morpholide; lactam N-11)
[1]
  HRAS/KRAS (ratio of KD value for HRAS to KD value for KRAS): B (a compound having 3 or more and less than 10 is denoted as B)
[2]
  IC50: 296 nM
[3]
  NRAS/KRAS (ratio of KD value for NRAS to KD value for KRAS): B (a compound having 3 or more and less than 10 is denoted as B)

## CCCN1C(=O)CN(C)C(=O)[C@@H]2CCN2C(=O)[C@H]([C@@H](C)CC)NC(=O)[C@H](CC(C)C)N(C)C(=O)C[C@@H](C(=O)N2CCOCC2)NC(=O)[C@H](C2CCCC2)N(C)C(=O)C2(CCC2)NC(=O)[C@@H]2CC(F)(F)CN2C(=O)[C@H](CCc2ccc(C(F)(F)F)c(Cl)c2)NC(=O)CN(C)C(=O)[C@@H]1Cc1ccc(C(F)(F)F)cc1 [PP0340] ([NMeL]I[Aze][Sar][NPrPhe(4-CF3)][Sar][hPhe(3-Cl-4-CF3)][Pro(4,4-F2)][Ac4c][NMeGly(cPent)]D-Morpholide; lactam N-11)
[1]
  HRAS/KRAS (ratio of KD value for HRAS to KD value for KRAS): B (a compound having 3 or more and less than 10 is denoted as B)
[2]
  IC50: 177 nM
[3]
  NRAS/KRAS (ratio of KD value for NRAS to KD value for KRAS): B (a compound having 3 or more and less than 10 is denoted as B)

## CCCN1C(=O)CN(C)C(=O)[C@@H]2CCN2C(=O)[C@H]([C@@H](C)CC)NC(=O)[C@H](CC(C)C)N(C)C(=O)C[C@@H](C(=O)N2CCOCC2)NC(=O)[C@H](C2CCCC2)N(C)C(=O)C2(CCCC2)NC(=O)[C@@H]2C[C@@H](OCC)CN2C(=O)[C@H](CCc2ccc(C(F)(F)F)c(Cl)c2)NC(=O)CN(C)C(=O)[C@@H]1Cc1ccc(C(F)(F)F)cc1 [PP0341] ([NMeL]I[Aze][Sar][NPrPhe(4-CF3)][Sar][hPhe(3-Cl-4-CF3)][Hyp](Et)[Ac5c][NMeGly(cPent)]D-Morpholide; lactam N-11)
[1]
  HRAS/KRAS (ratio of KD value for HRAS to KD value for KRAS): B (a compound having 3 or more and less than 10 is denoted as B)
[2]
  IC50: 135 nM
[3]
  NRAS/KRAS (ratio of KD value for NRAS to KD value for KRAS): B (a compound having 3 or more and less than 10 is denoted as B)

## CCCN1C(=O)CN(C)C(=O)[C@@H]2CCN2C(=O)[C@H]([C@@H](C)CC)NC(=O)[C@H](CC(C)C)N(C)C(=O)C[C@@H](C(=O)N(C)C)NC(=O)[C@H](C2CCCC2)N(C)C(=O)C2(CCC2)NC(=O)[C@@H]2CC(F)(F)CN2C(=O)[C@H](CCc2ccc(C(F)(F)F)c(Cl)c2)NC(=O)CN(C)C(=O)[C@@H]1Cc1ccc(C(F)(F)F)cc1 [PP0376] ([NMeL]I[Aze][Sar][NPrPhe(4-CF3)][Sar][hPhe(3-Cl-4-CF3)][Pro(4,4-F2)][Ac4c][NMeGly(cPent)]D-NMe2; lactam N-11)
[1]
  HRAS/KRAS (ratio of KD value for HRAS to KD value for KRAS): B (a compound having 3 or more and less than 10 is denoted as B)
[2]
  IC50: 114 nM
[3]
  NRAS/KRAS (ratio of KD value for NRAS to KD value for KRAS): B (a compound having 3 or more and less than 10 is denoted as B)
